Where two headings read alike, the source gives them in different places.
Tests used:
Type in all cases: biochemical
[1] = target: RSV RNP complex (Human respiratory syncytial virus A, UniProt P28887); assay: biochemical; settings: for inhibition of RSV RNP complex (in words): Fig 5B; for IC50: read-out: RSV polymerase inhibition class (IC50, RSV RNP complex)
[2] = target: HCV polymerase (Hepatitis C virus genotype 1b, UniProt Q9WMX2); assay: HCV polymerase inhibition assay; settings: for IC50: read-out: HCV polymerase inhibition class (IC50)
[3] = target: T1, wild-type RSV L-P RNA polymerase complex (Human respiratory syncytial virus A, UniProt P28887); settings: for discrimination relative to natural CTP, WT RSV polymerase: Km CTP analog / Km CTP; for Km: primer extension from the +3 position, read-out: Km, single nucleotide incorporation, WT RSV L-P
T1 construct: made in house; host or cells: insect cells

[4] = target: RSV polymerase QUAD mutant (Human respiratory syncytial virus A, UniProt P28887, A789V/I796V/L795I/M628L); assay: Single nucleotide incorporation by recombinant RSV L-P polymerase, QUAD mutant; settings: for Km: primer extension from the +3 position, n = 2
Chain of RSV polymerase QUAD mutant (P28887 whole entry A789V/I796V/L795I/M628L, looked up): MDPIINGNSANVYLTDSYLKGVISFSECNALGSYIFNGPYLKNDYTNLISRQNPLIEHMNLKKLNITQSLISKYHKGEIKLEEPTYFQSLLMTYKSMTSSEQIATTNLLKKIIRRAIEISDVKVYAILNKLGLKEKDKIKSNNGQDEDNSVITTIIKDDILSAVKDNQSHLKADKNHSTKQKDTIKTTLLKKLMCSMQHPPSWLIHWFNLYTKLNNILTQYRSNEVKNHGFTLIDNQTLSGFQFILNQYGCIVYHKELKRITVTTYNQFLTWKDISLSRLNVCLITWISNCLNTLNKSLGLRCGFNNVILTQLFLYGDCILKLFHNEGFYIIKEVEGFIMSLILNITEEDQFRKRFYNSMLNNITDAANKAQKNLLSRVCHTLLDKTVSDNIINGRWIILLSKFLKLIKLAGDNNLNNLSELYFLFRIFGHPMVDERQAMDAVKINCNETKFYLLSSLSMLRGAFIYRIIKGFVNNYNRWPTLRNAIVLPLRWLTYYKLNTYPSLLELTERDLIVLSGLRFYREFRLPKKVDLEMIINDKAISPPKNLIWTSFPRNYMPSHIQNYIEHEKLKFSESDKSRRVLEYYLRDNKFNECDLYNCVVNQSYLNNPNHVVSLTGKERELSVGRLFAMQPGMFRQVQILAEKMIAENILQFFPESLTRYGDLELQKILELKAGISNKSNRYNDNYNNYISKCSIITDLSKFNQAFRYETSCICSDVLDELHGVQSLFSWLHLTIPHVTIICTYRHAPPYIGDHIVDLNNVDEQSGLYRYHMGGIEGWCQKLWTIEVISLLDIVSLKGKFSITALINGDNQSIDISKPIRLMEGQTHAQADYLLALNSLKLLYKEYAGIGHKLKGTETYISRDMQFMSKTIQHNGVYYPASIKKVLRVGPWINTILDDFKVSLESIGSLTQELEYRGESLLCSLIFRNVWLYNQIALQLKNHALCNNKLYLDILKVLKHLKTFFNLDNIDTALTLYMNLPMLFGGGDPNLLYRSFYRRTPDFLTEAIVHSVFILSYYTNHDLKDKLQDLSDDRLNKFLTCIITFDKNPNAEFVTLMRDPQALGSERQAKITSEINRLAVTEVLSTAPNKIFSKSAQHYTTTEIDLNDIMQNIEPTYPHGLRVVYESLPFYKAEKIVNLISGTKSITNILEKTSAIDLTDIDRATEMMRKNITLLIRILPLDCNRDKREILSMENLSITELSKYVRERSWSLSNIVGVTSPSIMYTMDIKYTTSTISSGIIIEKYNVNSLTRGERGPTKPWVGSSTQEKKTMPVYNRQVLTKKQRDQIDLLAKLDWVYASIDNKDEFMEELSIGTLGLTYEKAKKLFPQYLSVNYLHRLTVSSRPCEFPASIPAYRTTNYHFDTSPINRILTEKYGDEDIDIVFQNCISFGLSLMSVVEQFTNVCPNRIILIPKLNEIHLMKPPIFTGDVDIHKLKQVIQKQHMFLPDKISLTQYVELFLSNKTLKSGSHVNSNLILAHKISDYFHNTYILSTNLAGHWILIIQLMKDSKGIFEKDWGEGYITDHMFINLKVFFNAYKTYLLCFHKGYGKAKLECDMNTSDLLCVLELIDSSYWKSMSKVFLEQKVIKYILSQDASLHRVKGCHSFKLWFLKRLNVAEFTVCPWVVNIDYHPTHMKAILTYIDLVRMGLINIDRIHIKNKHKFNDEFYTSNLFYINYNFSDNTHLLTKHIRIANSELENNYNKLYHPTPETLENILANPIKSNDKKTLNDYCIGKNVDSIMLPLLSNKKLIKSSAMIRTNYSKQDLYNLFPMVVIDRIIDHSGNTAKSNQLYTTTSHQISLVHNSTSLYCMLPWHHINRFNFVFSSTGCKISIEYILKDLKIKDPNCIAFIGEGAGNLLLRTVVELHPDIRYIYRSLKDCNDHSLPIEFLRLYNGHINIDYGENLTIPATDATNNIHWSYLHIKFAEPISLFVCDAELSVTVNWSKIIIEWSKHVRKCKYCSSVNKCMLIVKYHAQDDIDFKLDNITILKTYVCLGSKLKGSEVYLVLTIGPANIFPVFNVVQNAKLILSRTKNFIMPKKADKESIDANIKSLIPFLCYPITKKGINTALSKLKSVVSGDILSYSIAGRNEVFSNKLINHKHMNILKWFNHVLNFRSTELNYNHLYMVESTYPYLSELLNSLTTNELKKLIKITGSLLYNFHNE

[5] = target: human mitochondrial RNA polymerase (Homo sapiens, UniProt O00411); assay: DdRp assay with human mitochondrial RNA polymerase, single turnover

Chain of RSV RNP complex (P03421 whole entry): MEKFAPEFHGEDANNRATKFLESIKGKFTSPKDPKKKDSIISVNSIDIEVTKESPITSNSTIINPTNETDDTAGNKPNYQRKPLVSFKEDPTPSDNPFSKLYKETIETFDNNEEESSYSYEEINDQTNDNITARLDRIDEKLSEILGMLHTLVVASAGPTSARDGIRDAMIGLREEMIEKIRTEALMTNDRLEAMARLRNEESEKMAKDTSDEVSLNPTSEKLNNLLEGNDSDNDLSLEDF
Chain of RSV RNP complex (P28887 whole entry): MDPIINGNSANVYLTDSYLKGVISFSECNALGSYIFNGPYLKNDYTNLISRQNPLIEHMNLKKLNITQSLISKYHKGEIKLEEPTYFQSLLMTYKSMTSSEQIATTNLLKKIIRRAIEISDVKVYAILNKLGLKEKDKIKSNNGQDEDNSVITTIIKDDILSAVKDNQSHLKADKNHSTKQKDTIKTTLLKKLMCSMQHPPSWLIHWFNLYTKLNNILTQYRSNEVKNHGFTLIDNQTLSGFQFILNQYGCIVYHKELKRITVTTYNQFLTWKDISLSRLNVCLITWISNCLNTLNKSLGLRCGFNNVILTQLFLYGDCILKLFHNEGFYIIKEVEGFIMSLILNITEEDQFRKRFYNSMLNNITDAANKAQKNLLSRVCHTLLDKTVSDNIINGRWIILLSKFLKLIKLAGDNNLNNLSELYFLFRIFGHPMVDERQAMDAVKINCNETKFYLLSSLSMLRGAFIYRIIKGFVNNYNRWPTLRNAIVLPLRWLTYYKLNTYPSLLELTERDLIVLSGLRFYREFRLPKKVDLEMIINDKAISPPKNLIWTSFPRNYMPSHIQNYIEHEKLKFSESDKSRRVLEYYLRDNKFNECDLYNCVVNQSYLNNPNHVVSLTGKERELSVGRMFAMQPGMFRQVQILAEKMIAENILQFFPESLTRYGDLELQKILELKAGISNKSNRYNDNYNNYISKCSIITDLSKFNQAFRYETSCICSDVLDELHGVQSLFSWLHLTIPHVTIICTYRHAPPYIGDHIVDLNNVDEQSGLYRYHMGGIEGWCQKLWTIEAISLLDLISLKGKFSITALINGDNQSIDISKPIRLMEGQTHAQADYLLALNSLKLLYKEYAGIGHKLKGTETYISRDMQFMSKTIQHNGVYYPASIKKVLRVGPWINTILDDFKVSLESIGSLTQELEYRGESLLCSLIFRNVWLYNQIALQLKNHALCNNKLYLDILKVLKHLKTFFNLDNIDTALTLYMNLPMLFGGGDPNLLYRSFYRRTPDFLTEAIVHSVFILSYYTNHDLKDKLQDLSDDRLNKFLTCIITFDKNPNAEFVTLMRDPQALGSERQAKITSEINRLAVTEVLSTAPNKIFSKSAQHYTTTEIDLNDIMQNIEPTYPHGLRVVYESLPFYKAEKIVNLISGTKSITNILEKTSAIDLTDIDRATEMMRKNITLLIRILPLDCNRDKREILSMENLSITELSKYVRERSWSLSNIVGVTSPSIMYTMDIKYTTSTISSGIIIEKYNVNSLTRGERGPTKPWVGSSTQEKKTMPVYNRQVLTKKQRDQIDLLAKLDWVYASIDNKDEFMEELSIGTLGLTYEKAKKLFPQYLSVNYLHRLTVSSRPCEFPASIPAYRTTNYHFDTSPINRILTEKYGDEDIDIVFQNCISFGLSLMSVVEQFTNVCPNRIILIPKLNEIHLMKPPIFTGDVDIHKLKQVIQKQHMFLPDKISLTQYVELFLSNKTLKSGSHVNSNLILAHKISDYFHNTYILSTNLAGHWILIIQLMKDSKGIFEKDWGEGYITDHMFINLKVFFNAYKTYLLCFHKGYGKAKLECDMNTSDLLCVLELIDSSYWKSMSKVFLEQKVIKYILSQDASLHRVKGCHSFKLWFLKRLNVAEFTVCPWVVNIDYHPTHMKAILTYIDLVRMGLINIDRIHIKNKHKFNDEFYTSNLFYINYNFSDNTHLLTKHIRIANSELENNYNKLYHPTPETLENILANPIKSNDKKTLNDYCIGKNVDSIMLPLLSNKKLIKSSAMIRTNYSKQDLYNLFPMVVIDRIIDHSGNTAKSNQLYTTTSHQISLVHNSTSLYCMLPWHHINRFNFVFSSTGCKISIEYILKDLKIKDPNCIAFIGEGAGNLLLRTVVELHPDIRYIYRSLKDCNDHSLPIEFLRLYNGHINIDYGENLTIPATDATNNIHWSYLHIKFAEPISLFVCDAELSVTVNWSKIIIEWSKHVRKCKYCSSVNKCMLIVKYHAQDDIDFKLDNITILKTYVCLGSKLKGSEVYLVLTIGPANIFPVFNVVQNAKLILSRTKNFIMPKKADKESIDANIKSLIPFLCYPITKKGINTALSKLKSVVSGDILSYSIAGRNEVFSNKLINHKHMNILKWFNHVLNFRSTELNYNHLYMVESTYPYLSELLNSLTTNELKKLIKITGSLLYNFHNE

Question: For 4'ClCH2-CTP, which “inhibition of RSV RNP complex (in words)” value [1] is on record?
Answer: dual RSV/HCV polymerase inhibitors

Question: What about the IC50 ([1]; first symbol of RSV / HCV) of the same compound?
Answer: 0.1 to 10 µM

Question: And the “inhibition of HCV polymerase (in words)” value ([2]; Fig 5B)?
Answer: dual RSV/HCV polymerase inhibitors

Question: What about the IC50 ([2]; second symbol of RSV / HCV) of the same compound?
Answer: 0.1 to 10 µM

Question: What about the “substrate and chain termination profile with recombinant RSV polymerase (in words)” value (shortened to “substrate and chain termination profile”) ([3]; Fig 5A) of the same compound?
Answer: less efficiently recognized

Question: And the “discrimination relative to natural CTP, WT RSV polymerase” value [3]?
Answer: 288±48 fold

Question: What about the Km [3] of the same compound?
Answer: 16 ± 2.7 µM

Question: What about the Km [4] of the same compound?
Answer: 198 ± 18 µM

Question: What about the “increase in discrimination, QUAD vs WT (resistance level)” value ([4]; recombinant L-P enzymes) of the same compound?
Answer: 24 fold

Question: `[N-]=[N+]=N[C@]1(COP(=O)(O)OP(=O)(O)OP(=O)(O)O)O[C@@H](n2ccc(N)nc2=O)[C@H](F)[C@@H]1O` [2'F-4'N3-CTP] was tested. Which “inhibition of RSV RNP complex (in words)” value [1] did it give?
Answer: dual RSV/HCV polymerase inhibitors

Question: What about the IC50 ([1]; first symbol of RSV / HCV) of the same compound?
Answer: 0.1 to 10 µM

Question: What about the “inhibition of HCV polymerase (in words)” value ([2]; Fig 5B) of the same compound?
Answer: dual RSV/HCV polymerase inhibitors

Question: What about the IC50 ([2]; second symbol of RSV / HCV) of the same compound?
Answer: 0.1 to 10 µM

Question: And the “substrate and chain termination profile” value ([3]; Fig 5A)?
Answer: both substrates and chain terminators

Question: With `Nc1ccn([C@@H]2O[C@H](COP(=O)(O)OP(=O)(O)OP(=O)(O)O)[C@@H](O)[C@H]2F)c(=O)n1` [2'F-CTP] as the compound, how does the “inhibition of HCV polymerase (in words)” value [2] read?
Answer: did not efficiently inhibit

Question: What about the “recognition as substrate by human mitochondrial RNA polymerase (in words)” value [5] of the same compound?
Answer: recognized as a substrate

Question: Which results are given for `Nc1ccn([C@@H]2O[C@](CCl)(COP(=O)(O)OP(=O)(O)OP(=O)(O)O)[C@@H](O)C2(F)F)c(=O)n1` [2'diF-4'ClCH2-CTP]?
Answer: IC50 ([1]; first symbol of RSV / HCV): > 10 µM; IC50 ([2]; second symbol of RSV / HCV): > 10 µM; substrate and chain termination profile with recombinant RSV polymerase (in words) [3]: almost completely inactive

Question: With `[N-]=[N+]=NC1(COP(=O)(O)OP(=O)(O)OP(=O)(O)O)OC(n2ccc(N)nc2=O)C(F)(F)C1O` (centres unmarked) [2'diF-4'N3-CTP] as the compound, how does the “inhibition of RSV RNP complex (in words)” value [1] read?
Answer: dual RSV/HCV polymerase inhibitors

Question: What about the IC50 ([1]; first symbol of RSV / HCV) of the same compound?
Answer: 0.1 to 10 µM

Question: And the “inhibition of HCV polymerase (in words)” value ([2]; Fig 5B)?
Answer: dual RSV/HCV polymerase inhibitors

Question: What about the IC50 ([2]; second symbol of RSV / HCV) of the same compound?
Answer: 0.1 to 10 µM

Question: And the “substrate and chain termination profile” value [3]?
Answer: both substrates and chain terminators

Question: For `Nc1ccn([C@@H]2O[C@H](COP(=O)(O)OP(=O)(O)OP(=O)(O)O)[C@@H](O)C2(F)F)c(=O)n1` [2'diF-CTP, reference compound], which “inhibition of RSV RNP complex (in words)” value [1] is on record?
Answer: did not efficiently inhibit

Question: What about the IC50 ([1]; first symbol of RSV / HCV) of the same compound?
Answer: > 10 µM

Question: What about the “inhibition of HCV polymerase (in words)” value ([2]; Fig 5B) of the same compound?
Answer: did not efficiently inhibit

Question: What about the IC50 ([2]; second symbol of RSV / HCV) of the same compound?
Answer: 0.1 to 10 µM

Question: What about the “substrate and chain termination profile” value [3] of the same compound?
Answer: substrates for RSV polymerase, but did not cause immediate chain termination

Question: How did the “inhibition of RSV RNP complex (in words)” value [1] turn out when `[N-]=[N+]=N[C@]1(COP(=O)(O)OP(=O)(O)OP(=O)(O)O)O[C@@H](n2ccc(N)nc2=O)[C@H](O)[C@@H]1O` [4'N3-CTP, reference compound] was run?
Answer: dual RSV/HCV polymerase inhibitors

Question: And the IC50 ([1]; first symbol of RSV / HCV)?
Answer: 0.1 to 10 µM

Question: And the “inhibition of HCV polymerase (in words)” value ([2]; Fig 5B)?
Answer: dual RSV/HCV polymerase inhibitors

Question: What about the IC50 ([2]; second symbol of RSV / HCV) of the same compound?
Answer: < 0.1 µM

Question: And the “substrate and chain termination profile” value [3]?
Answer: both substrates and chain terminators

Question: What about the “recognition as substrate by human mitochondrial RNA polymerase (in words)” value ([5]; 100 μM of each NTP) of the same compound?
Answer: efficiently incorporated

Question: What does the source list for `C[C@@]1(F)[C@H](O)[C@@H](COP(=O)(O)OP(=O)(O)OP(=O)(O)O)O[C@H]1n1ccc(N)nc1=O` [mericitabine-TP, 2'F-2'Me-CTP, reference compound]?
Answer: IC50 ([1]; first symbol of RSV / HCV): > 10 µM; IC50 ([2]; second symbol of RSV / HCV): < 0.1 µM; substrate and chain termination profile with recombinant RSV polymerase (in words) ([3]; Fig 5A): almost completely inactive; discrimination relative to natural CTP, WT RSV polymerase [3]: greater than 5,000 fold; level of incorporation by RSV polymerase ([3]; at a concentration of 300 μM): less than 20%

Question: “cytidine triphosphate [CTP, reference compound]” was tested. Which IC50 [1] did it give?
Answer: > 10 µM

Question: What about the IC50 [2] of the same compound?
Answer: > 10 µM

Question: And the Km [3]?
Answer: 0.057 ± 0.009 µM

Question: And the Km [4]?
Answer: 0.056 ± 0.01 µM
